pIC50: −log10 of the molar value.
Columns and labels:
DGKα = DGKα (Homo sapiens, UniProt P23743); assay: DGKα biochemical assay (ADP-Glo); conditions: read-out: DGK α IC50
How it was run: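 ADP-Glo kinase assay using OAG/PS (1:2) lipid substrate, sonicated, in HEPES pH 7.0 buffer with MgCl2, CaCl2, DTT, BSA, Triton X-100. Enzyme preincubated with compound 30 min at RT; substrate with ATP (DGKα: 400 μM) added, 45 min RT. Luminescence read; % inhibition vs DMSO and no-enzyme controls.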

DGKζ = molecular target: T1, DGKζ (Homo sapiens, UniProt Q13574); assay: DGKζ biochemical assay (ADP-Glo); conditions: read-out: DGK ζ IC50
T1 construct: purchased Carna 12-110
T1 sequence (Q13574 1-929 isoform Q13574-4): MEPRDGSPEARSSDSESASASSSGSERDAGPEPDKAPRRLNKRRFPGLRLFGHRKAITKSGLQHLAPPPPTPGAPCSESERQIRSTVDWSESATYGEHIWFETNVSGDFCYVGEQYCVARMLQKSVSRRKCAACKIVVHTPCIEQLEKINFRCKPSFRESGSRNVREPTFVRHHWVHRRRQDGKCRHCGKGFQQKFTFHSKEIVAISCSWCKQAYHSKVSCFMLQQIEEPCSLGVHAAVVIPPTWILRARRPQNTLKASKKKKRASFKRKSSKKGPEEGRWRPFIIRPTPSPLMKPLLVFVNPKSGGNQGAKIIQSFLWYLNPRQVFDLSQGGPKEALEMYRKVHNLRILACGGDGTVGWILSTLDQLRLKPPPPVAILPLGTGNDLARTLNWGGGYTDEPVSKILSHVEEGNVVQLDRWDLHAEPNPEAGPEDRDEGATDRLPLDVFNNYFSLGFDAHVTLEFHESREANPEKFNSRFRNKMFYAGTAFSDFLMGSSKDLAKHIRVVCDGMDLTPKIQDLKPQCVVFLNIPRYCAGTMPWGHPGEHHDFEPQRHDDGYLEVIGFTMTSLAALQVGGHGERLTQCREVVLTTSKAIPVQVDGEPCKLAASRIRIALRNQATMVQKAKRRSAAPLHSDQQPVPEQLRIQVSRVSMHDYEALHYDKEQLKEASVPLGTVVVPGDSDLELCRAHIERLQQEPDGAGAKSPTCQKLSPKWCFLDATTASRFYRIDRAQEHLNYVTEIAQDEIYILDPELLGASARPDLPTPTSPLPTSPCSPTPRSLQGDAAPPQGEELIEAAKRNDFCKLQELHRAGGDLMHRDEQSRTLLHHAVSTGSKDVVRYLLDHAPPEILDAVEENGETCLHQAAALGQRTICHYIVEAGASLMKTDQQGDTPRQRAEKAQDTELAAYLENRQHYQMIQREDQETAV

Sequence of DGKα (P23743 whole entry): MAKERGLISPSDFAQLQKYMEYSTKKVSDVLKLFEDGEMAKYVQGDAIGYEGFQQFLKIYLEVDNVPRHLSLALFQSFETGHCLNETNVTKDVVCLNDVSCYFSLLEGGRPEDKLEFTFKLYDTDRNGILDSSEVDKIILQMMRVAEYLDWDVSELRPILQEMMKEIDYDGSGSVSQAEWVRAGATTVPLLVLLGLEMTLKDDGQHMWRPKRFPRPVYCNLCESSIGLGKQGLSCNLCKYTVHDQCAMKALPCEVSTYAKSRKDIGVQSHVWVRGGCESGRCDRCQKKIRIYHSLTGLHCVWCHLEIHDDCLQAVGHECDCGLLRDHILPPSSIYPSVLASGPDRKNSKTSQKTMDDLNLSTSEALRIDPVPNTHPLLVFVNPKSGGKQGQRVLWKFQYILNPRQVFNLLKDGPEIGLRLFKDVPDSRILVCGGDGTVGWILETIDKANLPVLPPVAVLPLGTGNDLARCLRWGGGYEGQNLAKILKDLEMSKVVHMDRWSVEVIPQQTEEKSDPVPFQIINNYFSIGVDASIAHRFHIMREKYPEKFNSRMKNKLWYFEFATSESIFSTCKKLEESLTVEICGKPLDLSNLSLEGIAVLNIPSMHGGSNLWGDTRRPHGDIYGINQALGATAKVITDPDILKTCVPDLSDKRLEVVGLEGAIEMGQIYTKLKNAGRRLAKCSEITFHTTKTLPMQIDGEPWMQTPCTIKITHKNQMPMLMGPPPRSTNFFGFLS

Row | Structure (SMILES) | pIC50 (DGKα) | pIC50 (DGKζ)
1 | Cn1c(=O)c(C#N)c(N(C)[C@H]2CC[C@@H](N(CC3CC3)c3cccc4c3oc(=O)n4C)CC2)c2nc(C#N)ccc21 [Example 200, cis-8-((-4-((cyclopropylmethyl)(3-methyl-2-oxo-2,3-dihydrobenzo[d]oxazol-7-yl)amino)cyclohexyl) (methyl)amino)-5-methyl-6-oxo-5,6-dihydro-1,5-naphthyridine-2,7-dicarbonitrile] | ≤ 6.00 | ≤ 6.00
2 | Cn1c(=O)c(C#N)c(N(C)[C@H]2CC[C@@H](N(C[C@H]3C[C@H](O)C3)c3ccc(F)cc3)CC2)c2nc(C#N)ccc21 [Example 201, cis-8-((-4-((4-fluorophenyl)((trans-3-hydroxycyclobutyl)methyl)amino)cyclohexyl) (methyl)amino)-5-methyl-6-oxo-5,6-dihydro-1,5-naphthyridine-2,7-dicarbonitrile] | > 8.00 | ≤ 6.00
3 | Cn1c(=O)c(C#N)c(N(C)[C@H]2CC[C@@H](N(CC3CC3)c3ccc4c(c3)C(=O)NC4)CC2)c2nc(C#N)ccc21 [Example 202, cis-8-((-4-((cyclopropylmethyl)(3-oxoisoindolin-5-yl)amino)cyclohexyl)(methyl)amino)-5-methyl-6-oxo-5,6-dihydro-1,5-naphthyridine-2,7-dicarbonitrile] | ≤ 6.00 | ≤ 6.00
4 | Cn1c(=O)c(F)c(N(C)[C@H]2CC[C@@H](N(CC3COCCO3)c3ccc(F)cc3)CC2)c2nc(C#N)ccc21 (stereo partly drawn) [Example 203, cis-8-((-4-(((1,4-dioxan-2-yl)methyl)(4-fluorophenyl)amino)cyclohexyl)(methyl)amino)-7-fluoro-5-methyl-6-oxo-5,6-dihydro-1,5-naphthyridine-2-carbonitrile] | > 8.00 | 6.00 to 7.00
5 | CN1Cc2ccc(N(CC3CC3)[C@H]3CC[C@@H](N(C)c4c(C#N)c(=O)n(C)c5ccc(C#N)nc45)CC3)cc2C1=O [Example 204, cis-8-((-4-((cyclopropylmethyl)(2-methyl-3-oxoisoindolin-5-yl)amino)cyclohexyl)(methyl)amino)-5-methyl-6-oxo-5,6-dihydro-1,5-naphthyridine-2,7-dicarbonitrile] | ≤ 6.00 | ≤ 6.00
6 | Cn1c(=O)c(F)c(N(C)[C@H]2CC[C@@H](N(CC3COCCO3)c3ccc(F)cc3F)CC2)c2nc(C#N)ccc21 (stereo partly drawn) [Example 205, cis-8-((-4-(((1,4-dioxan-2-yl)methyl)(2,4-difluorophenyl)amino)cyclohexyl)(methyl)amino)-7-fluoro-5-methyl-6-oxo-5,6-dihydro-1,5-naphthyridine-2-carbonitrile] | 7.00 to 8.00 | 7.00 to 8.00
7 | Cn1c(=O)c(C#N)c(N(C)[C@H]2CC[C@@H](N(C(=O)C3CC3)c3ccc(F)cc3)CC2)c2nc(C#N)ccc21 [Example 206, cis-N-(4-((3,6-dicyano-1-methyl-2-oxo-1,2-dihydro-1,5-naphthyridin-4-yl)(methyl)amino)cyclohexyl)-N-(4-fluorophenyl)cyclopropanecarboxamide] | 7.00 to 8.00 | ≤ 6.00

Continued, values first:

Row | pIC50 (DGKα) | pIC50 (DGKζ) | Structure (SMILES)
8 | ≤ 6.00 | ≤ 6.00 | Cn1c(=O)oc2ccc(N(CC3CC3)[C@H]3CC[C@@H](N(C)c4c(C#N)c(=O)n(C)c5ccc(C#N)nc45)CC3)cc21 [Example 207, cis-8-((-4-((cyclopropylmethyl)(3-methyl-2-oxo-2,3-dihydrobenzo[d]oxazol-5-yl)amino)cyclohexyl) (methyl)amino)-5-methyl-6-oxo-5,6-dihydro-1,5-naphthyridine-2,7-dicarbonitrile]
9 | 6.00 to 7.00 | ≤ 6.00 | Cn1c(=O)cc(N(C)[C@H]2CC[C@@H](N(C(=O)C3CC3)c3ccc(F)cc3)CC2)c2nc(C#N)ccc21 [Example 208, cis-N-(4-((6-cyano-1-methyl-2-oxo-1,2-dihydro-1,5-naphthyridin-4-yl)(methyl)amino)cyclohexyl)-N-(4-fluorophenyl)cyclopropanecarboxamide]
10 | 6.00 to 7.00 | ≤ 6.00 | CC(C)C(=O)N(c1ccc(F)cc1)[C@H]1CC[C@@H](N(C)c2c(C#N)c(=O)n(C)c3ccc(C#N)nc23)CC1 [Example 209, cis-N-(4-((3,6-dicyano-1-methyl-2-oxo-1,2-dihydro-1,5-naphthyridin-4-yl)(methyl)amino)cyclohexyl)-N-(4-fluorophenyl)isobutyramide]
11 | 7.00 to 8.00 | ≤ 6.00 | Cn1c(=O)cc(N(C)[C@H]2CC[C@@H](N(CC3CCS(=O)(=O)CC3)c3ccc(F)cc3)CC2)c2nc(C#N)ccc21 [Example 211, cis-8-((4-(((1,1-dioxidotetrahydro-2H-thiopyran-4-yl)methyl)(4-fluorophenyl)amino)cyclohexyl)(methyl)amino)-5-methyl-6-oxo-5,6-dihydro-1,5-naphthyridine-2-carbonitrile]
12 | ≤ 6.00 | ≤ 6.00 | Cn1c(=O)c(C#N)c(N(C)[C@H]2CC[C@H](N(CC3CC3)c3cc4c(cn3)OCO4)CC2)c2nc(C#N)ccc21 [Example 212, trans-8-((-4-([1,3]dioxolo[4,5-c]pyridin-6-yl(cyclopropylmethyl)amino)cyclohexyl)(methyl)amino)-5-methyl-6-oxo-5,6-dihydro-1,5-naphthyridine-2,7-dicarbonitrile]
13 | 7.00 to 8.00 | 6.00 to 7.00 | Cn1c(=O)c(C#N)c(N(C)[C@H]2CC[C@@H](N(CC3CC3)c3cc4c(cn3)OCO4)CC2)c2nc(C#N)ccc21 [Example 213, cis-8-((-4-([1,3]dioxolo[4,5-c]pyridin-6-yl(cyclopropylmethyl)amino)cyclohexyl)(methyl)amino)-5-methyl-6-oxo-5,6-dihydro-1,5-naphthyridine-2,7-dicarbonitrile]
14 | ≤ 6.00 | ≤ 6.00 | Cn1c(=O)cc(N(C)[C@H]2CC[C@@H](N(Cc3ccccc3)CC3CC3)CC2)c2nc(C#N)ccc21 [Example 214, cis-8-((-4-(benzyl(cyclopropylmethyl)amino)cyclohexyl)(methyl)amino)-5-methyl-6-oxo-5,6-dihydro-1,5-naphthyridine-2-carbonitrile]
